The assay in a line: Inhibitory activity against human gamma-secretase using SH-SY5Y cells. Format: cell-based.

pIC50: −log10 of the molar value.

For the molecule `CN1C(=O)C(NC(=O)CCc2ccc(F)cc2)N=C(c2ccc(C(N)=O)cc2)c2ccccc21` (centres undefined), the pIC50 (commonly the IC50 on a negative log10 scale, so that one unit is a factor of ten) was 6.96.

For the molecule `CN1C(=O)C(NC(=O)CCc2ccc(F)c(F)c2)N=C(c2ccc(C(N)=O)cc2)c2ccccc21` (centres undefined), the pIC50 was 7.54.

Molecule `CN1C(=O)C(NC(=O)CCc2cc(F)cc(F)c2)N=C(c2ccc(C(N)=O)cc2)c2ccccc21` (centres undefined) gave a negative-log IC50 (pIC50) of 6.96.

The molecule `CN1C(=O)C(NC(=O)CCc2cccc(Cl)c2Cl)N=C(c2ccc(C(N)=O)cc2)c2ccccc21` (centres undefined) showed a pIC50 of 7.66.

In turn, `Cc1ccc(CCC(=O)NC2N=C(c3ccc(C(N)=O)cc3)c3ccccc3N(C)C2=O)cc1` (centres undefined) had a pIC50 of 6.74.

`CN1C(=O)[C@@H](NC(=O)C(Cc2ccc(Cl)c(Cl)c2)c2ccsc2)N=C(c2ccccc2)c2ccccc21` (some centres undefined) had a pIC50 of 7.00.

As for `CN1C(=O)C(NC(=O)CCc2cc(Cl)cc(Cl)c2)N=C(c2ccc(C(N)=O)cc2)c2ccccc21` (centres undefined), the pIC50 was 7.40.

In turn, `CN1C(=O)C(NC(=O)CCc2c(Cl)cccc2Cl)N=C(c2ccc(C(N)=O)cc2)c2ccccc21` (centres undefined) showed a negative logarithm of the IC50 (pIC50) of 5.49.

As to `CN1C(=O)C(NC(=O)CCc2ccc(N)cc2)N=C(c2ccc(C(N)=O)cc2)c2ccccc21` (centres undefined), the negative logarithm of the IC50 (pIC50) was below 5.00.

On to `COc1ccccc1CCC(=O)NC1N=C(c2ccc(C(N)=O)cc2)c2ccccc2N(C)C1=O` (centres undefined), for which the pIC50 was 5.29.

`CN1C(=O)[C@@H](NC(=O)[C@@H](Cc2ccc(Cl)c(Cl)c2)NC(=O)OC(C)(C)C)N=C(c2ccccc2)c2ccccc21` gave a negative-log IC50 (pIC50) of 6.12.

Turning to `CN1C(=O)C(NC(=O)CCc2cccc(O)c2)N=C(c2ccc(C(N)=O)cc2)c2ccccc21` (centres undefined), the pIC50 was 5.17.

`CN1C(=O)[C@@H](NC(=O)[C@@H](Cc2ccc(Cl)c(Cl)c2)N2CCCC2)N=C(c2ccccc2)c2ccccc21` had a negative logarithm of the IC50 (pIC50) of 6.39.

For `C[C@@H](Cc1ccc(Cl)cc1Cl)C(=O)N[C@H]1N=C(c2ccccc2)c2ccccc2N(C)C1=O`, the pIC50 was 6.09.

As for `COc1ccc(CCC(=O)NC2N=C(c3ccc(C(N)=O)cc3)c3ccccc3N(C)C2=O)cc1` (centres undefined), the negative logarithm of the IC50 (pIC50) was 5.87.

Turning to `CN1C(=O)[C@@H](NC(=O)[C@H](Cc2ccc(Cl)c(Cl)c2)c2ccc(F)cc2)N=C(c2ccccc2)c2ccccc21`, the negative-log IC50 (pIC50) is 7.82.

For `COc1cccc(CCC(=O)NC2N=C(c3ccc(C(N)=O)cc3)c3ccccc3N(C)C2=O)c1` (centres undefined), the pIC50 is 5.80.

`CC(Cc1ccc(Cl)cc1Cl)C(=O)NC1N=C(c2ccc(C(N)=O)cc2)c2ccccc2N(C)C1=O` (centres undefined) showed a pIC50 of 8.10.

Consider `CN1C(=O)[C@@H](NC(=O)[C@H](Cc2ccc(F)c(F)c2)c2ccc(F)cc2)N=C(c2ccccc2)c2ccccc21`, for which the pIC50 is 8.42.

With `CN1C(=O)C(NC(=O)CCc2ccc(Cl)cc2)N=C(c2ccc(C(N)=O)cc2)c2ccccc21` (centres undefined), the negative logarithm of the IC50 (pIC50) is 7.82.

For `CN1C(=O)C(NC(=O)CCc2cccc(Cl)c2)N=C(c2ccc(C(N)=O)cc2)c2ccccc21` (centres undefined), the pIC50 was 7.03.

The molecule `CN1C(=O)C(NC(=O)CCCc2ccccc2)N=C(c2ccc(C(N)=O)cc2)c2ccccc21` (centres undefined) showed a pIC50 of 5.30.

Regarding `CN1C(=O)C(NC(=O)CCc2ccc(Cl)cc2Cl)N=C(c2ccc(C(N)=O)cc2)c2ccccc21` (centres undefined), the negative-log IC50 (pIC50) is 7.48.

`CN1C(=O)C(NC(=O)CCc2ccc(Cl)c(Cl)c2)N=C(c2ccc(C(N)=O)cc2)c2ccccc21` (centres undefined) gave a negative logarithm of the IC50 (pIC50) of 7.92.

The molecule `CN1C(=O)[C@@H](NC(=O)[C@@H](Cc2ccc(Cl)c(Cl)c2)c2ccccc2)N=C(c2ccccc2)c2ccccc21` showed a pIC50 of 7.14.

Regarding `CN1C(=O)C(NC(=O)CCc2ccc(O)cc2)N=C(c2ccc(C(N)=O)cc2)c2ccccc21` (centres undefined), the pIC50 is below 5.00.

With `C[C@@H](Cc1ccc(Cl)c(Cl)c1)C(=O)N[C@H]1N=C(c2ccccc2)c2ccccc2N(C)C1=O`, the negative logarithm of the IC50 (pIC50) is 6.49.

Consider `CN1C(=O)C(NC(=O)C(C)(C)Cc2ccc(Cl)cc2Cl)N=C(c2ccc(C(N)=O)cc2)c2ccccc21` (centres undefined), for which the pIC50 was 6.40.

Consider `CN1C(=O)C(NC(=O)Cc2ccc(Cl)cc2Cl)N=C(c2ccc(C(N)=O)cc2)c2ccccc21` (centres undefined), for which the pIC50 is below 5.00.

Take `CN1C(=O)C(NC(=O)CCc2ccccc2)N=C(c2ccc(C(N)=O)cc2)c2ccccc21` (centres undefined): the pIC50 was 6.47.

For `C[C@@H](Cc1ccc(F)c(F)c1)C(=O)N[C@H]1N=C(c2ccccc2)c2ccccc2N(C)C1=O`, the pIC50 was 6.66.

In turn, `CN1C(=O)[C@@H](NC(=O)C(Cc2ccc(Cl)c(Cl)c2)c2cccs2)N=C(c2ccccc2)c2ccccc21` (some centres undefined) had a negative logarithm of the IC50 (pIC50) of 7.43.

Molecule `CN1C(=O)C(NC(=O)/C=C/c2ccc(Cl)cc2Cl)N=C(c2ccc(C(N)=O)cc2)c2ccccc21` (centres undefined) showed a negative logarithm of the IC50 (pIC50) of 5.33.

With `Cc1nc(C(Cc2ccc(Cl)c(Cl)c2)C(=O)N[C@H]2N=C(c3ccccc3)c3ccccc3N(C)C2=O)cs1` (some centres undefined), the pIC50 is 6.19.

Regarding `CN1C(=O)[C@@H](NC(=O)[C@H](Cc2ccc(Cl)c(Cl)c2)c2ccc(Br)cc2)N=C(c2ccccc2)c2ccccc21`, the pIC50 was 7.00.

Regarding `CN1C(=O)C(NC(=O)CCc2ccccc2Cl)N=C(c2ccc(C(N)=O)cc2)c2ccccc21` (centres undefined), the pIC50 was 6.52.

The molecule `CN1C(=O)C(NC(=O)CCc2cc(Cl)ccc2Cl)N=C(c2ccc(C(N)=O)cc2)c2ccccc21` (centres undefined) gave a negative logarithm of the IC50 (pIC50) of 7.22.

The molecule `CN1C(=O)[C@@H](NC(=O)[C@H](Cc2ccc(Cl)c(Cl)c2)c2ccccc2)N=C(c2ccccc2)c2ccccc21` had a negative logarithm of the IC50 (pIC50) of 6.74.

As to `C[C@@H](Cc1ccc(Cl)cc1Cl)C(=O)N[C@@H]1N=C(c2ccccc2)c2ccccc2N(C)C1=O`, the pIC50 is below 5.00.

Molecule `CN1C(=O)C(NC(=O)CCc2cc(C(F)(F)F)cc(C(F)(F)F)c2)N=C(c2ccc(C(N)=O)cc2)c2ccccc21` (centres undefined) showed a pIC50 of 6.40.

Turning to `CN1C(=O)[C@@H](NC(=O)[C@H](Cc2ccc(Cl)c(Cl)c2)N2CCCC2)N=C(c2ccccc2)c2ccccc21`, the negative-log IC50 (pIC50) is 6.46.

`C[C@H](Cc1ccc(Cl)cc1Cl)C(=O)NC1N=C(c2ccc(C(N)=O)cc2)c2ccccc2N(C)C1=O` (single isomer, unassigned; diastereomer A): the pIC50 was 7.38.

The molecule `C[C@@H](Cc1ccc(Cl)cc1Cl)C(=O)NC1N=C(c2ccc(C(N)=O)cc2)c2ccccc2N(C)C1=O` (single isomer, unassigned; diastereomer A) had a negative-log IC50 (pIC50) of 6.30.

In turn, `CN1C(=O)[C@@H](NC(=O)C(Cc2ccc(Cl)c(Cl)c2)c2ccncc2)N=C(c2ccccc2)c2ccccc21` (single isomer, unassigned; diastereomer A) had a pIC50 of 5.87.

As to `CC(C)C(Cc1ccc(Cl)c(Cl)c1)C(=O)N[C@H]1N=C(c2ccccc2)c2ccccc2N(C)C1=O` (single isomer, unassigned; diastereomer A), the pIC50 is 6.36.

Regarding `C[C@H](Cc1ccc(Cl)cc1Cl)C(=O)NC1N=C(c2ccc(C(N)=O)cc2)c2ccccc2N(C)C1=O` (single isomer, unassigned; diastereomer B), the pIC50 is 6.04.

The molecule `C[C@@H](Cc1ccc(Cl)cc1Cl)C(=O)NC1N=C(c2ccc(C(N)=O)cc2)c2ccccc2N(C)C1=O` (single isomer, unassigned; diastereomer B) showed a pIC50 of 8.72.

Take `CN1C(=O)[C@@H](NC(=O)C(Cc2ccc(Cl)c(Cl)c2)c2ccncc2)N=C(c2ccccc2)c2ccccc21` (single isomer, unassigned; diastereomer B): the negative logarithm of the IC50 (pIC50) was 6.72.

Turning to `CC(C)C(Cc1ccc(Cl)c(Cl)c1)C(=O)N[C@H]1N=C(c2ccccc2)c2ccccc2N(C)C1=O` (single isomer, unassigned; diastereomer B), the pIC50 is 6.62.
